Measured values taken from patent publication US20150118179A1, “BIOCIDAL COMPOUNDS AND METHODS FOR USING SAME” (UNIVERSITY OF MANITOBA, priority 2012, published 2015).
Like-named read-outs stand apart in the source and are kept apart here.

Columns and labels:
[1] = system: methicillin resistant Staphylococcus aureus (MRSA 40065); assay type: cell-based; details: inoculum 10^6 cfu/ml; for Bacteria Reduction log10 / Bacteria reduction %: [Cl+] 15 ppm
Experimental: (§1) Pseudomonas aeruginosa (P. aeruginosa) (#73104, Gram-negative) and Staphylococcus aureus (MRSA) (#40065, Gram-positive) were used as the model microorganism to challenge the antibacterial function of the compounds. It should be noticed that both P. aeruginosa and MRSA are biosafety level 2 microorganisms and potentially biohazardous, therefore the following antibacterial assessments were carried out in a Biological Safety Level 2 cabinet and safety precautions were strictly followed.
(§2) Tryptone Soya agar plates were used as platforms for bacterial cell growth and were prepared following the instructions on the bottle (CM 0131, OXOID). The prepared agar was kept at 65° C. after being autoclaved and the resulting agar plates were stored in fridge at 3-4° C. All glassware and related materials were subjected to autoclave or disinfection with 70% ethanol prior to use.
(§3) Several colonies of each bacteria type were suspended in broth solutions (cation-supplemented Mueller-Hinton broth for P. aeruginosa and tryptic soy broth for MRSA) whose concentrations were equivalent to a 0.5 McFarland standard (1×10^8 cfu/ml). This suspension was then diluted 1:100 and 20 μL of the diluted suspension was further diluted in 60 ml of cation-supplemented Mueller-Hinton broth or tryptic soy broth. Then the prepared bacteria inoculums were incubated overnight at 37° C. to obtain logarithmic-phase cultures. For each microbial study, 0.2 ml (0.02 ml for P. aeruginosa) of the cell suspension was diluted in 19.8 mL (19.98 ml for P. aeruginosa) of phosphate-buffered Saline (PBS, 0.1 M Sodium phosphate monobasic, 0.1 M Sodium phosphate dibasic, pH 7.4) to give a cell concentration of 10^6-10^7 cfu/mL (10^5 cfu/ml for P. aeruginosa). 30 μL of each synthesized compound solution (0.28 N stock solution) were added into the cell suspension to achieve a [Cl^+] of 15 ppm and start timing instantly. The mixture was vortexed several times during the reaction. After contact for the desired time intervals, 1.0 ml cell suspension was withdrawn and added to 1.0 ml of 0.02 N sodium thiosulfate and/or Letheen (1% lecithin, 10% peptone and 0.5% tween 80 dissolved in PBS at pH 7.4) to quench the bactericidal effect. The quenched suspension was then serially diluted (10 times less concentrated than the previous one) and 100 μL of each dilution was placed onto agar plates. The same procedure was applied to the blanks as controls with the same matrices but with no synthesized compounds added. Bacterial colonies on the agar plates were enumerated after being incubated at 37° C. for 22 hours.
(§4) Percentage reduction of bacteria (%)=(A−B)/A×100
(§5) Where A is the number of bacterial colonies in the control (cfu/mL), and B is the number of bacteria colonies under the effect of the synthesized compounds.

[2] = system: P. aeruginosa (73104); test: Antibacterial assessment in PBS suspension (Example 19); assay type: cell-based, Pseudomonas aeruginosa; details: inoculum 10^5 cfu/ml; for Bacteria Reduction log10 / Bacteria reduction %: [Cl+] 15 ppm
Experimental: as §1, §2, §3, §4, §5

Row | SMILES | Bacteria Reduction log10 ([1]; Table 10, contact 1 min) [log10] | Bacteria reduction % ([1]; Table 10, contact 1 min) [%] | Bacteria Reduction log10 ([1]; Table 10, contact 3 min) [log10] | Bacteria reduction % ([1]; Table 10, contact 3 min) [%] | Bacteria Reduction log10 ([1]; Table 10, contact 5 min) [log10] | Bacteria reduction % ([1]; Table 10, contact 5 min) | Bacteria Reduction log10 ([1]; Table 10, contact 10 min) [log10] | Bacteria reduction % ([1]; Table 10, contact 10 min) [%] | Bacteria Reduction log10 ([1]; Table 10, contact 60 min) [log10] | Bacteria reduction % ([1]; Table 10, contact 60 min) [%] | Bacteria Reduction log10 ([2]; Table 10, contact 3 min) [log10] | Bacteria reduction % ([2]; Table 10, contact 3 min) [%] | Bacteria Reduction log10 ([2]; Table 10, contact 10 min) [log10] | Bacteria reduction % ([2]; Table 10, contact 10 min) [%] | Bacteria Reduction log10 ([2]; Table 10, contact 20 min) [log10] | Bacteria reduction % ([2]; Table 10, contact 20 min) [%] | Bacteria Reduction log10 ([2]; Table 10, contact 30 min) [log10] | Bacteria reduction % ([2]; Table 10, contact 30 min) [%] | Bacteria Reduction log10 ([2]; Table 10, contact 60 min) [log10] | Bacteria reduction % ([2]; Table 10, contact 60 min) [%] | other results
1 | CCCCCC[N+](C)(C)CCCN1C(=O)NC(C)(C)C1=O [Compound 5] |  |  |  |  |  |  |  |  |  |  |  |  |  |  |  |  |  |  |  |  | Bactericidal effect (bacteria reduction at various contact time) ([1]; Table 10, contact 1-60 min): No bactericidal effect; Bactericidal effect (bacteria reduction at various contact time) ([2]; Table 10, contact 3-60 min): No bactericidal effect
2 | CCCCCC[N+](C)(C)CCCN1C(=O)N(Cl)C(C)(C)C1=O.[Cl-] [Compound 6] | 0.66 | 78.3 | 0.67 | 78.9 | 0.76 | 82.8% | 1.00 | 89.3 | 2.11 | 99.2 | 0.24 | 42.7 | 0.30 | 49.3 | 0.50 | 68.6 | 1.52 | 97.0 | 5.80 | 100 | 
3 | CCCCCCCCCCCC[N+](C)(C)CCCN1C(=O)NC(C)(C)C1=O [Compound 7] | 0 | 0 | 0 | 0 | 0.85 | 85.6. % | 2.59 | 99.7 | 6.26 | 100 | 5.80 | 100 | 5.80 | 100 | 5.80 | 100 | 5.80 | 100 | 5.80 | 100 | 
